Each structure is given as a SMILES string. “Also recorded” adds a separate entry of the source.

In test [1] the test system is cultured cortical neurons. Briefly: Epileptiform burst activity in cultured cortical neurons (whole-cell patch-clamp). In kind it is cell-based, mouse. On the procedure:
Mouse cortical neurons were prepared from newborn C57BL/6 mice as previously described. Qi et al., “Cyclothiazide induces robust epileptiform activity in rat hippocampal neurons both in vitro and in vivo” The Journal Of Physiology 571:605-618 (2006). Briefly, the newborn mouse cerebral cortices were dissected out in ice-cold HEPES-buffered saline solution, washed and digested with 0.05% trypsin-EDTA at 37° C. for 20 min. After deactivation of trypsin with serum-containing medium, cells were centrifuged, resuspended, and seeded on a monolayer of cortical astrocytes at a density of 10,000 cells/cm^2 in 24-well plates. The neuronal culture medium contained MEM (500 ml, Invitrogen), 5% fetal bovine serum (Atlanta Biologicals), 10 ml B-27 supplement (Invitrogen), 100 mg NaHCO3, 2 mM Glutamax (Invitrogen), and 25 units/ml penicillin & streptomycin. AraC (4 μM, Sigma) was added to inhibit the excessive proliferation of astrocytes. Cell cultures were maintained in a 5% CO2-humidified incubator at 37° C. for 14-21 days.
The cultured neurons were placed in the recording chamber with continuous perfusion of the bath solution consisting of (mM): 128 NaCl, 10 Glucose, 25 HEPES, 5 KCl, 2 CaCl2, 1 MgSO4, pH 7.3 adjusted with NaOH, and osmolarity ˜300 mOsm. For recording spontaneous firing under current clamp mode, pipettes were filled with an internal solution containing (in mM): 125 K-gluconate, 5 Na-phosphocreatine, 5 EGTA, 10 KCl, 10 HEPES, 4 Mg-ATP, 0.3 Na-GTP, 280-290 mOsm, pH 7.3 adjusted with KOH. Epileptiform activity in cultured neurons was induced either by 10 μM CTZ for 24 h, or 1 μM KA for 2 h, or 50 μM 4-AP for 2 h. The burst activity was defined as previously described. Qi et al., “Cyclothiazide induces robust epileptiform activity in rat hippocampal neurons both in vitro and in vivo” The Journal Of Physiology 571:605-618 (2006). In brief, at least five consecutive action potentials overlaying on top of the large depolarization shift (≥10 mV depolarization and ≥300 ms in duration).
(In general: Patch clamp records ionic current or voltage across a cell membrane.)

Test [2] deals with KA-induced epileptic burst activities. Kind of test: KA-induced epileptic burst activity in adult mice, EEG recording. It is filed as in vivo, mouse. The settings on record: KA 10 mg/kg i.p., NaGcA 2 g/kg i.p., sodium salt. On the procedure: To test the in vivo anti-epilepsy effects of gluconate in neonatal and adult rodents, P8-12 Sprague-Dawley rats or 2-month old male C57BL/6 mice were deeply anesthetized with pentobarbital sodium (50 mg/kg for neonatal rat and 100 mg/kg for adult mice, intraperitoneal injection). Two stainless steel screws (1 mm in diameter) were inserted in the skull above the cortex as EEG recording electrodes, one ground electrode as well as one reference electrode were located +1.8 mm anterior to bregma, ±0.5 mm lateral to the midline, and 1 mm below the cortical surface. All electrodes were attached to a micro-connector and fixed onto the skull with dental cement. After surgery, neonatal rats were returned to their mothers and allowed to recover for 2 days prior to subsequent EEG recording. The adult mice were single housed in order to prevent damage of the implanted electrodes and allowed to recover at least 5 days before EEG recording.

The subject of test [3] is PTZ-induced seizure behavior. Kind of test: Seizure behavior test (Racine score) after PTZ. In kind it is in vivo, mouse. The settings on record: PTZ 50 mg/kg i.p., adult mice. On the procedure:
Male mice were divided into three groups: vehicle control group (saline, n=9), D-gluconic acid sodium at 1 g/kg group (n=10), and D-gluconic acid sodium at 2 g/kg group (n=11). PTZ (50 mg/kg) was intraperitoneally administered 1 hr after drug treatment. After PTZ injection, the behavior was monitored and observed for 1 hr. The seizure behavior was classified according to Racine Score: stage 0, no response; stage 1, facial twitching; stage 2, nod; stage 3, forelimb clonic, tail upright; stage 4, stand with forelimbs clonic; stage 5, stand and fall, jump, general clonic seizure, general clonic and tonic seizure or death. Racine et al., “Modification of seizure activity by electrical stimulation. 3. Mechanisms” Electroencephalogr Clin Neurophysiol 32:295-299 (1972).

The test system of test [4] is GABAA-R reversal potential (EGABA). Briefly: Gramicidin-perforated whole-cell recording of GABAA-R reversal potential (EGABA) in CA3 pyramidal neurons. In kind it is cell-based, mouse. On the procedure: To further test this idea, the GABAA-R reversal potential (EGABA), which governs GABA excitatory versus inhibitory function, was directly measured using gramicidin-perforated whole-cell recordings in neonatal mouse brain slices (e.g., P8-P9). As expected, epileptiform activity induced a large depolarizing shift in EGABA after treating hippocampal slices with 0 Mg^2+ aCSF for 1 h (aCSF: −59.2±2.0 mV, n=13; 0 Mg^2+: −48.2±1.1 mV, n=10). FIG. 16D. Treatment with bumetanide (Bum, 10 μM), a specific blocker for NKCC1 at low concentrations, induced a hyperpolarizing shift in EGABA (blue line) as compared to a control EGABA (dashed line). […]. […] Kaila et al., “Cation-chloride cotransporters in neuronal development, plasticity and disease” Nature Reviews. Neuroscience 15:637-654 (2014); Dzhala et al., “NKCC1 transporter facilitates seizures in the developing brain” Nature Medicine 11:1205-1213 (2005); and Loscher et al., “Cation-chloride cotransporters NKCC1 and KCC2 as potential targets for novel antiepileptic and antiepileptogenic treatments” Neuropharmacology 69:62-74 (2013). […] FIG. 16E, yellow line; Bum, −68.0±1.7 mV (n=9); 0 Mg^2++Bum, −50.2±1.4 mV (n=9); (p<0.002).

For another test, the system named is GABAA-R current. Briefly: GABAA-R current induced by isoguvacine before and after membrane depolarization (gramicidin-perforated recording). It is filed as cell-based, mouse. The settings on record: isoguvacine 100 μM; depolarization 40 mV, 10 s; NaGcA 20 mM. Here is the method:
To investigate the effect of such long-lasting epileptiform bursts on GABA function, gramicidin-perforated whole-cell recordings were performed to keep the intracellular Cl− intact in neonatal animals. GABAA receptor (GABAA-R) currents induced by the receptor agonist isoguvacine (100 μM, 50 ms) before and after a membrane-depolarizing shift (40 mV for 10 s) that mimics the epileptiform burst activity. […] FIGS. 16B and 16C.

Test [5] concerns KA induced neonatal seizure. Briefly: KA-induced neonatal seizure, in vivo EEG recording. The settings on record: NaGcA 2 g/kg i.p. about 1 hr after KA, P10-12 rat; sodium salt.

Consider `O=C([O-])[C@H](O)[C@@H](O)[C@H](O)[C@H](O)CO.[Na+]` [NaGcA, D-gluconic acid sodium salt], for which the “KA-induced epileptiform burst activity” value in test [1] (1 μM KA for 2 hrs, 10 mM NaGcA, sodium salt) is reported as “greatly suppressed; also recorded: dramatically suppressed”. For the same compound, the “neurons showing epileptiform activity after CTZ co-treatment” value in test [1] (10 μM CTZ together with 10 mM NaGcA, 3 out of 17 neurons) stood at 18%. In addition, the 4-AP-induced epileptiform activity entry in test [1] (50 μM 4-AP for 2 hrs, 10 mM NaGcA, sodium salt) is listed as “completely blocked; also recorded: obviously suppressed”. Further, in test [1] (10 mM NaGcA, acute application), the “CTZ-induced epileptiform burst activity” value is on record as “completely blocked”. The “spontaneous epileptiform activity (burst action potentials)” value in test [1] (5-20 mM NaGcA in bath solution (FIG. 1A: 20 mM), sodium salt) is on record as “inhibited spontaneous epileptiform activity; also recorded: stopped immediately”. Moreover, the “induction of epileptiform activity by CTZ” value in test [1] (co-application of 10 μM CTZ and 10 mM NaGcA during induction, sodium salt) is listed as “great reduction; also recorded: lack of burst activity”. In test [1] (neurons co-treated with CTZ and NaGcA (5 and 10 mM)), the “average frequency and duration of epileptiform bursts” value is listed as “significantly reduced”. In addition, in test [2] (listed as gluconate), the “KA-induced epileptic burst activities / EEG power in adult animals” value is “less inhibition”. In addition, the “KA-induced epileptic burst activities / EEG power in adult animals” value in test [2] is recorded as “modest effect; also recorded: modestly inhibited”. In addition, in test [3], the behavioral seizure score result is “mild inhibitory effect”; the “latency of seizure behavior (Racine score 3 and above)” value was “dose-dependently prolonged”. Also, in test [4] (CLC-3 KO mice, application of NaGcA), the “EGABA in 0 Mg2+ aCSF in CLC-3 KO mice” value was −56.6±2.4 mV. Also, the “positive EGABA shift induced by 0 Mg2+ aCSF” value in test [4] (neonatal CA3 neurons) was “completely abolishes”. Also, the “EGABA in 0 Mg2+ aCSF” value in test [4] (neonatal P8-P9, 0 Mg2+ aCSF, bumetanide 10 μM, VU0240551 10 μM, NaGcA 20 mM) is given as −59.3±1.7 mV. Also, the “EGABA in normal aCSF” value in test [4] (neonatal P8-P9, bumetanide 10 μM, VU0240551 10 μM, NaGcA 20 mM) was −60.3±0.9 mV. For the same compound, in the test on GABAA-R current, the “depolarization-induced enhancement of GABAA-R current” value is listed as “strongly inhibited”. In addition, the “stable epileptic activity induced by KA (acute effect)” value in test [5] is “gradually reduced; also recorded: significantly reduced; also recorded: still suppressed seizure activity”.
